{
  "source": "patent US8178486B2",
  "about": "“Method for promoting hair growth” (Animal Technology Institute Taiwan, priority 2005, dated 2012)",
  "tested_on": "hair follicles",
  "assay": "Hair growth in 4-month old female mice, topical application to shaved dorsal skin",
  "type": "in vivo",
  "method": "The marked areas of the mice were applied by spreading topically on the exposed skin areas 60 μl of aqueous solutions of bovine lactoferrin (200 mg/ml), 60 μl of control vehicle (water), and 60 μl of bovine lactoferricin, obtained as set forth in Example 3, (200 mg/ml) twice daily. Observation for hair growth in the marked areas is made daily after the first treatment. […] The hair growth-promoting effect of lactoferrin or lactoferricin was consistently observed in all tested mice. Although lactoferricin was prepared by the method described in Example 3 above, the present invention should not be limited to use only lactoferricin prepared in such manner. Lactoferricin prepared by other methods would still fall within the scope of the present invention.",
  "data": [
    {"substance": "lactoferricin", "values": [
      {"measurement": "amount of hair growth compared with area treated with lactoferrin of the same amount", "setting": "200 mg/ml topically twice daily, 10 days", "result": "greater amount of hair growth"},
      {"measurement": "hair growth observed in the treated skin area", "setting": "60 μl of 200 mg/ml topically twice daily, after 10 days, not seen with control vehicle", "result": "prominent hair growth"}
    ]}
  ]
}
